Data on four compounds can be found in US20090105252A1, “Pyrimidine Derivatives and Their Use in Therapy as well as the Use of Pyrimidine Derivatives in the Manufacture of a Medicament for Prevention and/or Treatment of Alzheimer's Disease” (AstraZeneca AB, priority 2005, published 2009).

SMILES strings stand for the structures. pKi: −log10 of the molar value. Where a name gives a salt, the structure may show the parent alone.

The term pKi denotes the Ki on a negative log10 scale, so that one unit is a factor of ten.

The assay addresses T1, recombinant human GSK3β (Homo sapiens, UniProt P49841).
T1 construct: purchased Dundee University, UK
As to the kind of experiment: GSK3β Scintillation Proximity Assay (ATP competition). Conditions: inhibition constant from ATP competition, 10 inhibitor concentrations in duplicate; ATP 1 μM; Km of ATP 20 μM. It counts as biochemical. Here is the method:
Determination of ATP competition in Scintillation Proximity GSK3β Assay.
GSK3β Scintillation Proximity Assay.
The competition experiments were carried out in duplicate with 10 different concentrations of the inhibitors in clear-bottom microtiter plates (Wallac, Finland). A biotinylated peptide substrate, Biotin-Ala-Ala-Glu-Glu-Leu-Asp-Ser-Arg-Ala-Gly-Ser(PO3H2)-Pro-Gln-Leu (AstraZeneca, Lund), was added at a final concentration of 1 μM in an assay buffer containing 1 mU recombinant human GSK3β (Dundee University, UK), 12 mM morpholinepropanesulfonic acid (MOPS), pH 7.0, 0.3 mM EDTA, 0.01% β-mercaptorethanol, 0.004% Brij 35 (a […] detergent), 0.5% glycerol and 0.5 μg BSA/25 μl. The reaction was initiated by the addition of 0.04 μCi [γ-^33P]ATP (Amersham, UK) and unlabelled ATP at a final concentration of 1 μM and assay volume of 25 μl. After incubation for 20 minutes at room temperature, each reaction was terminated by the addition of 25 μl stop solution containing 5 mM EDTA, 50 μM ATP, 0.1% Triton X-100 and 0.25 mg streptavidin coated Scintillation Proximity Assay (SPA) beads (Amersham, UK). After 6 hours the radioactivity was determined in a liquid scintillation counter (1450 MicroBeta Trilux, Wallac). The inhibition curves were analysed by non-linear regression using GraphPad Prism, USA. The Km value of ATP for GSK30, used to calculate the inhibition constants (Ki) of the various compounds, was 20 μM.
In general terms: Scintillation proximity formats need no separation of bound from free tracer.

T1 sequence (P49841 whole entry): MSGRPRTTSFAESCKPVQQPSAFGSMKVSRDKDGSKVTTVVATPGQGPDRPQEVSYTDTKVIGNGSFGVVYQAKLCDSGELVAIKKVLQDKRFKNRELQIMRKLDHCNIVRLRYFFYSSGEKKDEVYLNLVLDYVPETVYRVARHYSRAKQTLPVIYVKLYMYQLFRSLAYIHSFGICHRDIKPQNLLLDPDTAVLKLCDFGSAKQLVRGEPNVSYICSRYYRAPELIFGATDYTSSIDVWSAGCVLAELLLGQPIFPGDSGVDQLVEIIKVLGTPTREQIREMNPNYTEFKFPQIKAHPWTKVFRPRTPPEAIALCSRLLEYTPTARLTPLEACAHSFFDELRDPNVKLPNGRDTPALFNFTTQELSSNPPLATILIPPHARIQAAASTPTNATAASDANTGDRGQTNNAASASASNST

With `COc1cc(Nc2ncc(F)c(-c3cnc(C)n3C)n2)cc(C(F)(F)F)c1` [Example 1, 4-(1,2-Dimethyl-1H-imidazol-5-yl)-5-fluoro-N-[3-methoxy-5-(trifluoromethyl)phenyl]pyrimidin-2-amine], the pKi is 8.00.

For the compound `Cc1ncc(-c2nc(Nc3ccc(C(=O)N4CCN(C)CC4)cc3)ncc2F)n1C1CCCCC1` [Example 17, 4-(1-Cyclohexyl-2-methyl-1H-imidazol-5-yl)-5-fluoro-N-{4-[(4-methylpiperazin-1-yl)carbonyl]phenyl}pyrimidin-2-amine hydrochloride], the pKi is 7.85. Under `Cc1ncc(-c2nc(Nc3cccc(S(C)(=O)=O)c3)ncc2F)n1C1CCOCC1` [Example 22, 5-Fluoro-N-[3-(methylsulfonyl)phenyl]-4-[2-methyl-1-(tetrahydro-2H-pyran-4-yl)-1H-imidazol-5-yl]pyrimidin-2-amine hydrochloride] stands 7.66; under `Cc1ncc(-c2nc(Nc3ccc(CN4CCN(C)CC4)cc3)ncc2F)n1C` [Example 29, 4-(1,2-Dimethyl-1H-imidazol-5-yl)-5-fluoro-N-{4-[(4-methylpiperazin-1-yl)methyl]phenyl}pyrimidin-2-amine hydrochloride], 6.90.
